In assay [1] the target is human histamine H3 receptors (full-length H3, isoform 445) (Homo sapiens, UniProt Q9Y5N1). Particulars: hH3 binding IC50 (nM), inhibition of 1.4 nM [3H]-N-α-methylhistamine binding to CHO-K1 membranes expressing human H3, SPA, 1.5 hr.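 Further: scintillation counts read after the 1.5 hr incubation at room temperature with shaking, Imetit serving as reference control.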
Method: Histamine H3 SPA with the Agonist Radioligand [^3H]—N-α-methylhistamine
Reproducibility of the assay is such that IC50 curves can be generated in singlicate. Single poke (SP) testing was done in triplicate.
Membranes, prepared from CHO-K1 cells stably expressing the human histamine H3 receptor, were obtained from ACS.
Tested formula I compounds were provided as solubilized samples in neat DMSO. Serial dilutions were performed in DMSO.
Plates were read on a Perkin Elmer TopCount. CPM data were used to analyze unless DPM data generated by a quench curve were required.
• 1. 1 mg/ml BSA was added to assay buffer (AB) on day of assay. • 2. […] Buffer volume was split between beads and membranes to allow for polytroning of membranes prior to addition to beads. • a. […] Waited a minimum of 15 minutes prior to adding membranes (See b. below.). • b. […] The homogenized membrane mixture was combined with the beads and a minimum of 30 minutes was waited prior to dispensing to plate. • 3. Formula I compounds: For Single Poke, 2 μl 1 mM of a compound in accordance with formula I was dispensed to Optiplates (triplicate plates) for final concentration of 10 μM. […] Imetit (see below) was used as a control. • 4. […] 5 μl samples were calculated in quadruplicate on the β counter. […] (For IC50s, use final concentration on calculation tab of ABase template.)
• 1. […] 2 μl of the formula I compound dilution was mixed and then transferred into assay plates. DMSO was removed and 2 μl of 100 μM Imetit was added to the wells. • 3. 178 μl bead/membrane mixture was dispensed into the assay plate. • 4. 20 μl [^3H]-NAMH was added with Rapid Plate. The assay plate was sealed and incubated for 1.5 hr on RT shaker at speed ˜6.5. • 5. The assay plate was subsequently centrifuged at 1000 rpm for 10 minutes. • 6. The count was performed on TopCount using one of the 3H SPA H3 Quench programs.
The DPM data was analyzed when tSIS was less than that associated with 70% of full scale on the quench curve (tSIS<25%). Otherwise, CPM data was used.
The target in assay [2] is T1, human Histamine H3 receptor (hH3R) (Homo sapiens, UniProt Q9Y5N1).
T1 construct: expressed in transfected cells; host or cells: CHO cells (membranes)
T1 sequence (Q9Y5N1 whole entry): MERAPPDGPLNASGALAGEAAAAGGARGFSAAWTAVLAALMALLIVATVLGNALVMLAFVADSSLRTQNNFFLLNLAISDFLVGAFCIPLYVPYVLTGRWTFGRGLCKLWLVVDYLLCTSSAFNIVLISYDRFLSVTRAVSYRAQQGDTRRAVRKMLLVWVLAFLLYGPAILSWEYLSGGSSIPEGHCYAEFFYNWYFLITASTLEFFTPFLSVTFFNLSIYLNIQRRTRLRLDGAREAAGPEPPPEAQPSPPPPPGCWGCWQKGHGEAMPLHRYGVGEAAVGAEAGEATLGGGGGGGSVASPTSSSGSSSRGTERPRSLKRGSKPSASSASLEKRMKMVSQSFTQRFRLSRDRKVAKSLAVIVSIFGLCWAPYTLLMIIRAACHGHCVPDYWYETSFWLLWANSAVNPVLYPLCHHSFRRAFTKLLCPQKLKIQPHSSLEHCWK
Kind of assay: Guanosine 5'-O-(3-[35S]thio)triphosphate [GTPγS] Binding Assay. Format: biochemical. Particulars: antagonist activity; membranes from CHO cells expressing hH3R, (R)-α-methyl histamine 30 nM, [35S]GTPγS 0.2 nM, 90 minutes. As for the experimental part:
Guanosine 5′-O-(3-[^35]thio)triphosphate [GTPγS] Binding Assay
The GTPγS binding assay can be used to investigate antagonist properties of compounds in CHO cells (Chinese Hamster Ovary) transfected with human Histamine H3 receptor (hH3R). […] To determine antagonist activity, (R)-α-methyl histamine (30 nM) is added in 96 well SPA plate with [^35S]GTPγS (0.2 nM) and various concentration of H3R antagonists. The GTPγS binding assay is started with addition of the mixture membrane/saponine/GDP and incubated for 90 minutes at room temperature. The amount of bound [^35S]GTPγS is determined by using the MicroBeta Trilux counter (PerkinElmer). The percentage of [^35S]GTPγS bound in each sample is calculated as a percentage of that bound control sample incubated in absence of H3 antagonist. Duplicate determinations are obtained for each concentration, and the data are analyzed using ExcelFit4 to obtain the IC50.

pIC50: −log10 of the molar value.

As usually defined, the IC50 is the concentration needed to halve the response being measured. The pIC50 is the IC50 on a negative log10 scale, so that one unit is a factor of ten. Low values mean a high IC50, high ones a low IC50.

human histamine H3 receptors (full-length H3, isoform 445), sequence (Q9Y5N1 whole entry, canonical isoform): as the sequence (Q9Y5N1 whole entry) above

The molecule `O=C(C1CC12CCN(C1CCCOC1)CC2)N1CCN(C2CCC2)CC1` (centres unmarked) [Example 32, (4-Cyclobutyl-piperazin-1-yl)-[6-(tetrahydro-pyran-3-yl)-6-aza-spiro[2.5]oct-1-yl]-methanone] registered a 50% inhibitory concentration (IC50) in assay [1] of 15 nM. The molecule also had a pIC50 in assay [2] of 7.77.
Taken in the same sequence, the figures for `O=C(C1CC12CCN(C1CCOC1)CC2)N1CCN(C2CCC2)CC1` (centres unmarked) [Example 33, (4-Cyclobutyl-piperazin-1-yl)-[6-(tetrahydro-furan-3-yl)-6-aza-spiro[2.5]oct-1-yl]-methanone] were 35.1 nM and 8.26.
`O=C(C1CC12CCN(CCN1CCOCC1)CC2)N1CCN(C2CCC2)CC1` (centres unmarked) [Example 34, (4-Cyclobutyl-piperazin-1-yl)-[6-(2-morpholin-4-yl-ethyl)-6-aza-spiro[2.5]oct-1-yl]-methanone]: the half-inhibitory concentration (IC50) in assay [1] came out at 24.4 nM. In assay [2], this molecule had a negative logarithm of the IC50 (pIC50) of 7.87.
On to `O=C(C1CC12CCN(c1ccncc1)CC2)N1CCN(C2CCCCC2)CC1` (centres unmarked) [Example 35, (4-Cyclohexyl-piperazin-1-yl)-(6-pyridin-4-yl-6-aza-spiro[2.5]oct-1-yl)-methanone], for which the IC50 in assay [1] was 165 nM. Moreover, in assay [2], the negative logarithm of the IC50 (pIC50) was 7.07.

For the origin of these results see US20100168105A1, “Spirocyclopropyl Piperidine Derivatives” (priority 2007, published 2010).
